Test results from the supplement of paper PMC10307832.

How the values were obtained:
Assay in all cases: relative viability (nuclei count vs DMSO), 5 days (fraction); higher = more cells survive
BEN = test system: BEN
Summary of the method: (§1)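 Lung cancer cell lines were seeded in 1536-well plates and dosed by pin tool the next day, with either a single drug or a fixed anchor-drug dose combined with five library-drug doses (not always all listed) spaced in √10 steps. Five days later, one step fixed the cells and stained their nuclei (final 0.05% Triton X-100, 1% formaldehyde, 1 ug/ml Hoechst), and nuclei were counted on 4× images. Relative viability is the nuclei count in treated wells divided by the count in vehicle wells, and each value is the median of duplicate plates.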

ChaGo-K-1 = test system: ChaGo-K-1
Summary of the method: as §1

HCC-78 = test system: HCC-78
Summary of the method: as §1

LC-2-ad = test system: LC-2-ad
Summary of the method: as §1

LCLC-97TM1 = test system: LCLC-97TM1
Summary of the method: as §1

LK-2 = test system: LK-2
Summary of the method: as §1

LU99A = test system: LU99A
Summary of the method: as §1

LXF-289 = test system: LXF-289
Summary of the method: as §1

NCI-H1355 = test system: NCI-H1355
Summary of the method: as §1

NCI-H1651 = test system: NCI-H1651
Summary of the method: as §1

NCI-H1666 = test system: NCI-H1666
Summary of the method: as §1

NCI-H1944 = test system: NCI-H1944
Summary of the method: as §1

NCI-H1975 = test system: NCI-H1975
Summary of the method: as §1

NCI-H2087 = test system: NCI-H2087
Summary of the method: as §1

NCI-H2342 = test system: NCI-H2342
Summary of the method: as §1

NCI-H358 = test system: NCI-H358
Summary of the method: as §1

NCI-H596 = test system: NCI-H596
Summary of the method: as §1

NCI-H650 = test system: NCI-H650
Summary of the method: as §1

NCI-H661 = test system: NCI-H661
Summary of the method: as §1

NCI-H838 = test system: NCI-H838
Summary of the method: as §1

PC-3 [JPC-3] = test system: PC-3 [JPC-3]
Summary of the method: as §1

SK-MES-1 = test system: SK-MES-1
Summary of the method: as §1

CCN(CC)CCCCNc1ncc2cc(-c3cc(OC)cc(OC)c3)c(NC(=O)NC(C)(C)C)nc2n1 + O=C(CCCCCCC(=O)Nc1ccccc1)NO [Vorinostat] (partner 1 µM)
relative viability (BEN; first compound 0.01 µM): 0.617 | relative viability (BEN; first compound 0.03162 µM): 0.547 | relative viability (BEN; first compound 0.1 µM): 0.579 | relative viability (BEN; first compound 0.3162 µM): 0.544 | relative viability (BEN; first compound 1 µM): 0.546 | relative viability (ChaGo-K-1; first compound 0.01 µM): 0.776 | relative viability (ChaGo-K-1; first compound 0.03162 µM): 0.822 | relative viability (ChaGo-K-1; first compound 0.1 µM): 0.824 | relative viability (ChaGo-K-1; first compound 0.3162 µM): 0.827 | relative viability (ChaGo-K-1; first compound 1 µM): 0.693 | relative viability (HCC-78; first compound 0.01 µM): 0.479 | relative viability (HCC-78; first compound 0.03162 µM): 0.487 | relative viability (HCC-78; first compound 0.1 µM): 0.478 | relative viability (HCC-78; first compound 0.3162 µM): 0.456 | relative viability (HCC-78; first compound 1 µM): 0.497 | relative viability (LC-2-ad; first compound 0.01 µM): 0.716 | relative viability (LC-2-ad; first compound 0.03162 µM): 0.798 | relative viability (LC-2-ad; first compound 0.1 µM): 0.76 | relative viability (LC-2-ad; first compound 0.3162 µM): 0.739 | relative viability (LC-2-ad; first compound 1 µM): 0.66 | relative viability (LCLC-97TM1; first compound 0.01 µM): 0.805 | relative viability (LCLC-97TM1; first compound 0.03162 µM): 0.779 | relative viability (LCLC-97TM1; first compound 0.1 µM): 0.615 | relative viability (LCLC-97TM1; first compound 0.3162 µM): 0.865 | relative viability (LCLC-97TM1; first compound 1 µM): 0.699 | relative viability (LK-2; first compound 0.01 µM): 0.266 | relative viability (LK-2; first compound 0.03162 µM): 0.213 | relative viability (LK-2; first compound 0.1 µM): 0.2 | relative viability (LK-2; first compound 0.3162 µM): 0.235 | relative viability (LK-2; first compound 1 µM): 0.252 | relative viability (LU99A; first compound 0.01 µM): 0.528 | relative viability (LU99A; first compound 0.03162 µM): 0.601 | relative viability (LU99A; first compound 0.1 µM): 0.541 | relative viability (LU99A; first compound 0.3162 µM): 0.529 | relative viability (LU99A; first compound 1 µM): 0.423 | relative viability (LXF-289; first compound 0.01 µM): 0.768 | relative viability (LXF-289; first compound 0.03162 µM): 0.905 | relative viability (LXF-289; first compound 0.1 µM): 0.829 | relative viability (LXF-289; first compound 0.3162 µM): 0.85 | relative viability (LXF-289; first compound 1 µM): 0.661 | relative viability (NCI-H1355; first compound 0.01 µM): 0.647 | relative viability (NCI-H1355; first compound 0.03162 µM): 0.654 | relative viability (NCI-H1355; first compound 0.1 µM): 0.67 | relative viability (NCI-H1355; first compound 0.3162 µM): 0.657 | relative viability (NCI-H1355; first compound 1 µM): 0.616 | relative viability (NCI-H1651; first compound 0.01 µM): 0.541 | relative viability (NCI-H1651; first compound 0.03162 µM): 0.626 | relative viability (NCI-H1651; first compound 0.1 µM): 0.582 | relative viability (NCI-H1651; first compound 0.3162 µM): 0.674 | relative viability (NCI-H1651; first compound 1 µM): 0.475 | relative viability (NCI-H1666; first compound 0.01 µM): 1.13 | relative viability (NCI-H1666; first compound 0.03162 µM): 1.01 | relative viability (NCI-H1666; first compound 0.1 µM): 1.04 | relative viability (NCI-H1666; first compound 0.3162 µM): 1.1 | relative viability (NCI-H1666; first compound 1 µM): 1.05 | relative viability (NCI-H1944; first compound 0.01 µM): 0.536 | relative viability (NCI-H1944; first compound 0.03162 µM): 0.676 | relative viability (NCI-H1944; first compound 0.1 µM): 0.596 | relative viability (NCI-H1944; first compound 0.3162 µM): 0.576 | relative viability (NCI-H1944; first compound 1 µM): 0.521 | relative viability (NCI-H1975; first compound 0.01 µM): 0.758 | relative viability (NCI-H1975; first compound 0.03162 µM): 0.756 | relative viability (NCI-H1975; first compound 0.1 µM): 0.853 | relative viability (NCI-H1975; first compound 0.3162 µM): 0.78 | relative viability (NCI-H1975; first compound 1 µM): 0.548 | relative viability (NCI-H2087; first compound 0.01 µM): 0.669 | relative viability (NCI-H2087; first compound 0.03162 µM): 0.71 | relative viability (NCI-H2087; first compound 0.1 µM): 0.893 | relative viability (NCI-H2087; first compound 0.3162 µM): 0.886 | relative viability (NCI-H2087; first compound 1 µM): 0.514 | relative viability (NCI-H2342; first compound 0.01 µM): 0.699 | relative viability (NCI-H2342; first compound 0.03162 µM): 0.716 | relative viability (NCI-H2342; first compound 0.1 µM): 0.796 | relative viability (NCI-H2342; first compound 0.3162 µM): 0.708 | relative viability (NCI-H2342; first compound 1 µM): 0.875 | relative viability (NCI-H358; first compound 0.01 µM): 0.684 | relative viability (NCI-H358; first compound 0.03162 µM): 0.879 | relative viability (NCI-H358; first compound 0.1 µM): 0.813 | relative viability (NCI-H358; first compound 0.3162 µM): 0.806 | relative viability (NCI-H358; first compound 1 µM): 0.583 | relative viability (NCI-H596; first compound 0.01 µM): 0.658 | relative viability (NCI-H596; first compound 0.03162 µM): 0.699 | relative viability (NCI-H596; first compound 0.1 µM): 0.597 | relative viability (NCI-H596; first compound 0.3162 µM): 0.625 | relative viability (NCI-H596; first compound 1 µM): 0.579 | relative viability (NCI-H650; first compound 0.01 µM): 0.349 | relative viability (NCI-H650; first compound 0.03162 µM): 0.433 | relative viability (NCI-H650; first compound 0.1 µM): 0.498 | relative viability (NCI-H650; first compound 0.3162 µM): 0.525 | relative viability (NCI-H650; first compound 1 µM): 0.422 | relative viability (NCI-H661; first compound 0.01 µM): 0.781 | relative viability (NCI-H661; first compound 0.03162 µM): 0.757 | relative viability (NCI-H661; first compound 0.1 µM): 0.856 | relative viability (NCI-H661; first compound 0.3162 µM): 0.839 | relative viability (NCI-H661; first compound 1 µM): 0.741 | relative viability (NCI-H838; first compound 0.01 µM): 0.669 | relative viability (NCI-H838; first compound 0.03162 µM): 0.732 | relative viability (NCI-H838; first compound 0.1 µM): 0.779 | relative viability (NCI-H838; first compound 0.3162 µM): 0.69 | relative viability (NCI-H838; first compound 1 µM): 0.592 | relative viability (PC-3 [JPC-3]; first compound 0.03162 µM): 0.659 | relative viability (PC-3 [JPC-3]; first compound 0.1 µM): 0.937 | relative viability (PC-3 [JPC-3]; first compound 0.3162 µM): 1.18 | relative viability (PC-3 [JPC-3]; first compound 1 µM): 0.698 | relative viability (SK-MES-1; first compound 0.01 µM): 1.15 | relative viability (SK-MES-1; first compound 0.03162 µM): 1.17 | relative viability (SK-MES-1; first compound 0.1 µM): 1.22 | relative viability (SK-MES-1; first compound 0.3162 µM): 1.52 | relative viability (SK-MES-1; first compound 1 µM): 1.19
